Structures are written as SMILES.

The subject of assay [1] is transgenic Arabidopsis thaliana comprising antisense construct of AtKAPAS gene. The settings on record: pots filled with sands containing 1 mM biotin; Basta treated 5 times; transformed seeds. On the procedure:
The pots were treated with Basta 5 times, and then investigated for the growth of Arabidopsis thaliana in every pot.

The target in assay [2] is T1, protein expressed by AtKAPAS gene (KAPA synthase) (Arabidopsis thaliana, UniProt Q8GW43, DEL236-242/L243I).
T1 construct: contains 1410 bp size open reading frame encoding 469 amino acids; made in house; host or cells: E. coli BL21-Gold(DE) transformed with pCKAPA (AtKAPAS cDNA in pCAL-n)
T1 sequence (Q8GW43 other isoform, or with tags, fused parts or gaps DEL236-242/L243I): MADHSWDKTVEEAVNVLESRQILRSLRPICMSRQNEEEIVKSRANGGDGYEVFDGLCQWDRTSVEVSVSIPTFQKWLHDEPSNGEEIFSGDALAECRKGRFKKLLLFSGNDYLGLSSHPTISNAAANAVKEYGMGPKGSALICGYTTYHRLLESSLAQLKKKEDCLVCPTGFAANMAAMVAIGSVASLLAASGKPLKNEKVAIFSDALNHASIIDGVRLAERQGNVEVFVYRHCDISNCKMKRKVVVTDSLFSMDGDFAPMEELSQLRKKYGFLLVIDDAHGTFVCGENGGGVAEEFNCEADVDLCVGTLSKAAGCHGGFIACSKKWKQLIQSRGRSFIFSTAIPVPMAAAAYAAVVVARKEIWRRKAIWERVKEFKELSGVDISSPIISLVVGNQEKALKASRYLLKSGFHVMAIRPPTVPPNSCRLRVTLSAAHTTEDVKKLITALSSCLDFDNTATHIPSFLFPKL
The format is biochemical. The settings on record: substrate pimeroyl CoA, Lineweaver-Burk plot, 30° C., pH 7.5, 340 nm. How it is done: The enzyme activity of the protein was measured at 340 nm using a spectrophotometer (Backman DU series 60 spectrophotometer) adjusted at 30° C. according to a method of Alexeev et al.(Alexeev et al. J. Mol. Biol., 284:401-419, 1998). […] In every reaction solution, the concentration of the protein was 10 μM. L-alanine and pimeroyl CoA were also added into each reaction solution ([…]). Results were analyzed using the Soft-Pac Module kinetics software. Before the analysis, enzyme samples were dialyzed with 20 mM potassium phosphate buffer (pH 7.5) containing 100 μM PLP (pyridoxal 5′-phosphate) at 4° C. for 2 hours. The cuvette containing other substances but the purified protein was used as a control group for the measurement of the enzyme activity.
The changes of reaction speed according to substrate concentration were measured, and then represented by Lineweaver-Burkes plot (see FIG. 4).

For the next assay, the target named is KAPA syntase of E. coli (Escherichia coli, UniProt P12998). The note with it: KAPA synthase of E. coli; read-out: Km value to pimeroyl CoA; cited from earlier work.
KAPA syntase of E. coli, sequence (P12998 whole entry): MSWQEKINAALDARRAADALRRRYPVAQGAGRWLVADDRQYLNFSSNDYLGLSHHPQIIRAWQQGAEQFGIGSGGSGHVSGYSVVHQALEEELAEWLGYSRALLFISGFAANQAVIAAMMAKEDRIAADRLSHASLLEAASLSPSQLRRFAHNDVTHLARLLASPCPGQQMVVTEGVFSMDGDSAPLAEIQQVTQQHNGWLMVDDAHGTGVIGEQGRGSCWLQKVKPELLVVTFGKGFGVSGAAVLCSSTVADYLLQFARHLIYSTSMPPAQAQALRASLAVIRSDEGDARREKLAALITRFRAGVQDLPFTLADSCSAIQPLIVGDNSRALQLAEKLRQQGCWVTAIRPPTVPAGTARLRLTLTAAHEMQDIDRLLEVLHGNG
Assay [3] addresses KAPA syntase of Bacillus sphaericus (Lysinibacillus sphaericus, UniProt P22806). The note with it: read-out: Km value to pimeroyl CoA; KAPA synthase of Bacillus sphaericus; cited from earlier work.

KAPA syntase of Bacillus sphaericus, sequence (P22806 whole entry): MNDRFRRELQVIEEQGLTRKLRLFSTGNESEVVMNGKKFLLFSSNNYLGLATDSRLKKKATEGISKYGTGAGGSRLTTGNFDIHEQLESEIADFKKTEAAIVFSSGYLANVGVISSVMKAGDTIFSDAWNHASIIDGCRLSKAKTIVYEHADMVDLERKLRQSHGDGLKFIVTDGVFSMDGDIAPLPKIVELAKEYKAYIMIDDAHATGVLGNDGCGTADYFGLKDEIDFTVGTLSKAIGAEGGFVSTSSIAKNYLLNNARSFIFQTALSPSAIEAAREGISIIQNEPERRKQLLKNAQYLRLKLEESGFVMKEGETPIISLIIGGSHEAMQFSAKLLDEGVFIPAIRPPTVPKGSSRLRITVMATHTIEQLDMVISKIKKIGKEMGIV

Take `O=C(O)CCCC[C@@H]1SC[C@@H]2NC(=O)N[C@@H]21` [biotin]: the “Individual plants grown up” value in assay [1] worked out at 16.

For the compound `CC(C)(COP(=O)(O)OP(=O)(O)OC[C@H]1O[C@@H](n2cnc3c(N)ncnc32)[C@H](O)[C@@H]1OP(=O)(O)O)[C@@H](O)C(=O)NCCC(=O)NCCSC(=O)CCCCCC(=O)O` [pimeroyl CoA, pimeloyl CoA], the Km in assay [2] (read-out: Km value) is 0.54 µM; on KAPA syntase of E. coli, 500 µM; in assay [3] it was 2500 µM. Also, the Vmax value in assay [2] was determined as 7.93.

For orientation: Km means the concentration of substrate that gives half-maximal velocity.

The values are drawn from US20060168675A1, “Novel polypetide having function of 7-keto-8-aminopelargonic acid synthase of plant and method for inducing growth inhibition and lethality by suppressing expression of the polypeptide” (GENOMINE, INC, priority 2002, published 2006).
